# Results from ChEMBL document CHEMBL1201862, “PubChem BioAssay data set” (2004).
# Active and inactive are the calls of the source.
# Columns and labels:
# [1] = target: T1, Aryl hydrocarbon receptor (Homo sapiens, UniProt P35869); test: Luminescence-based cell-based high throughput dose response assay for activators of the Aryl Hydrocarbon Receptor (AHR). [Related pubchem assays: 2796 (Primary screen (AHR activators in singlicate)), 2845 (Confirmation screen (AHR activators in triplicate)), 434939 (Counterscreen (PXR activators in triplicate)), 2804 (Summary (AHR activators))]; format: ADME
# T1 sequence (P35869 whole entry): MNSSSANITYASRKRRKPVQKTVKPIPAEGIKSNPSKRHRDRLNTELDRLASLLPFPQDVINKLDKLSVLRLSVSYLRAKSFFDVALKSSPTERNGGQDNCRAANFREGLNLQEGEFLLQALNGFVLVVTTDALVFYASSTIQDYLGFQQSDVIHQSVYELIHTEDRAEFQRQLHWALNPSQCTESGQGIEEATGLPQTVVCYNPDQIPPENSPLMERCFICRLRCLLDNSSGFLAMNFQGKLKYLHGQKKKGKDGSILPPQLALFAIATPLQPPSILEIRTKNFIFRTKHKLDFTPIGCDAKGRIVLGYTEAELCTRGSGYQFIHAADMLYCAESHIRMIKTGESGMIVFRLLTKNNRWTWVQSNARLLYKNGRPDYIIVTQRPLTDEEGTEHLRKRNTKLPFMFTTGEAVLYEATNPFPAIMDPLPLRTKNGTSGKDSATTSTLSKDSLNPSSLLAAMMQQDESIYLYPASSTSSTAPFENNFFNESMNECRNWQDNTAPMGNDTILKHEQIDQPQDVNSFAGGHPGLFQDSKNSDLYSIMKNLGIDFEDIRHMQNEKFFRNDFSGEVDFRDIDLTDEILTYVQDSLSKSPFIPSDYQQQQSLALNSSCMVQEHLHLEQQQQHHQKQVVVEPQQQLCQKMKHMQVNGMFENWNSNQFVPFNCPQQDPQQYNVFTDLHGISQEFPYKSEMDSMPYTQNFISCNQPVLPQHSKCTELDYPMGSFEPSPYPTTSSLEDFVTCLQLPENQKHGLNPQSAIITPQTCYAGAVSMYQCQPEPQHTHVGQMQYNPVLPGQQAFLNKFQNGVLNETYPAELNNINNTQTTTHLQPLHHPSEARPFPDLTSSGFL
# [2] = viability loss in THP-1 monocytes – THP-1 cells, cytotoxicity control for Vif-APOBEC3G degradation inhibitor project, dose response (AID 1117359); format: functional; conditions: THP-1
# [3] = test system: H4; test: Luminescence Cell-Based Dose Response HTS to Identify Activators of 5'UTR Stem-Loop Driven Prion Protein mRNA Translation in H4 Neuroglioblastoma Cells. [Related pubchem assays: 1829 (Project Summary), 1814 (Primary HTS)]; format: functional; conditions: Homo sapiens
# [4] = target: T2, Sentrin-specific protease 8 (Homo sapiens, UniProt Q96LD8); format: functional;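 also: luminescence read-out of SENP8 inhibition, dose-response confirmation following an ultra-high-throughput screen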
# T2 sequence (Q96LD8 whole entry): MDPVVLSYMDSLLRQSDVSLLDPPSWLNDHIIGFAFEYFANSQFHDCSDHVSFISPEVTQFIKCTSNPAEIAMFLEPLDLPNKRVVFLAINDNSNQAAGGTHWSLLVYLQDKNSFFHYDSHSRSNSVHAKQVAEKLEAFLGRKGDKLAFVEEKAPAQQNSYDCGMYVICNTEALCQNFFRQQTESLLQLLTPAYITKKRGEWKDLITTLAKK
# [5] = cells; format: functional, cell-based
# [6] = cells
# [7] = cells; format: functional, cell-based; remark: listed apart in the source
# [8] = target: T3, Caspase-3 (Homo sapiens, UniProt P42574); format: functional;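 also: Dose-response selectivity test against caspase-3 for candidate inhibitors of sentrin-specific proteases (SENPs)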
# T3 sequence (P42574 whole entry): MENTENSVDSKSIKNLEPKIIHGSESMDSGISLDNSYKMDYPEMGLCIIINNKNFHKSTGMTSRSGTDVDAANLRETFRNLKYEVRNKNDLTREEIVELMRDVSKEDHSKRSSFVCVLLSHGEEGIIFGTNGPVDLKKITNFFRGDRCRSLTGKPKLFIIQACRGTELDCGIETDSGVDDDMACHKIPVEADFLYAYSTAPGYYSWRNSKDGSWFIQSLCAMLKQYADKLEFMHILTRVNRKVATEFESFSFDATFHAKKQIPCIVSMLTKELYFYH
# [9] = target: T4, Oxysterols receptor LXR-beta (Homo sapiens, UniProt P55055); format: functional, cell-based;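 also: Cell-based luminescence dose-response assay of agonist activity at LXR, run as a confirmatory counterscreen to a daf-12 agonist screen; HEK293 cells with Gal4-LXR fusion and GAL4-driven luciferase reporter; agonist potency from rising luciferase signal of a Gal4-LXR reporter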
# T4 sequence (P55055 whole entry): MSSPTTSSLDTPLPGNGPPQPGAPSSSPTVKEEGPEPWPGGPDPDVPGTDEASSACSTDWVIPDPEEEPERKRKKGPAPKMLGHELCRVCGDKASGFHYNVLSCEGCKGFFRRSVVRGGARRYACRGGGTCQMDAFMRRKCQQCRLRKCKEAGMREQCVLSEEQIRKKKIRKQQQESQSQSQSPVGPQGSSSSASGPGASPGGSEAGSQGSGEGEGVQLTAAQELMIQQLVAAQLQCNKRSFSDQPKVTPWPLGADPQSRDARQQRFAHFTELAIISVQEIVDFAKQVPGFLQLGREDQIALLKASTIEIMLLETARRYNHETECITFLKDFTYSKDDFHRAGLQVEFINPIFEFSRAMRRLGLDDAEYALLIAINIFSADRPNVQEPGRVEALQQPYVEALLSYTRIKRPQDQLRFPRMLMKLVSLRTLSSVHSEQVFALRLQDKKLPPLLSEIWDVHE
# [10] = target: T5, Sentrin-specific protease 6 (Homo sapiens, UniProt Q9GZR1); format: functional;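 also: Luminescence-based dose-response confirmatory assay of SENP6 inhibition, following up an ultra-high-throughput screen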
# T5 sequence (Q9GZR1 whole entry): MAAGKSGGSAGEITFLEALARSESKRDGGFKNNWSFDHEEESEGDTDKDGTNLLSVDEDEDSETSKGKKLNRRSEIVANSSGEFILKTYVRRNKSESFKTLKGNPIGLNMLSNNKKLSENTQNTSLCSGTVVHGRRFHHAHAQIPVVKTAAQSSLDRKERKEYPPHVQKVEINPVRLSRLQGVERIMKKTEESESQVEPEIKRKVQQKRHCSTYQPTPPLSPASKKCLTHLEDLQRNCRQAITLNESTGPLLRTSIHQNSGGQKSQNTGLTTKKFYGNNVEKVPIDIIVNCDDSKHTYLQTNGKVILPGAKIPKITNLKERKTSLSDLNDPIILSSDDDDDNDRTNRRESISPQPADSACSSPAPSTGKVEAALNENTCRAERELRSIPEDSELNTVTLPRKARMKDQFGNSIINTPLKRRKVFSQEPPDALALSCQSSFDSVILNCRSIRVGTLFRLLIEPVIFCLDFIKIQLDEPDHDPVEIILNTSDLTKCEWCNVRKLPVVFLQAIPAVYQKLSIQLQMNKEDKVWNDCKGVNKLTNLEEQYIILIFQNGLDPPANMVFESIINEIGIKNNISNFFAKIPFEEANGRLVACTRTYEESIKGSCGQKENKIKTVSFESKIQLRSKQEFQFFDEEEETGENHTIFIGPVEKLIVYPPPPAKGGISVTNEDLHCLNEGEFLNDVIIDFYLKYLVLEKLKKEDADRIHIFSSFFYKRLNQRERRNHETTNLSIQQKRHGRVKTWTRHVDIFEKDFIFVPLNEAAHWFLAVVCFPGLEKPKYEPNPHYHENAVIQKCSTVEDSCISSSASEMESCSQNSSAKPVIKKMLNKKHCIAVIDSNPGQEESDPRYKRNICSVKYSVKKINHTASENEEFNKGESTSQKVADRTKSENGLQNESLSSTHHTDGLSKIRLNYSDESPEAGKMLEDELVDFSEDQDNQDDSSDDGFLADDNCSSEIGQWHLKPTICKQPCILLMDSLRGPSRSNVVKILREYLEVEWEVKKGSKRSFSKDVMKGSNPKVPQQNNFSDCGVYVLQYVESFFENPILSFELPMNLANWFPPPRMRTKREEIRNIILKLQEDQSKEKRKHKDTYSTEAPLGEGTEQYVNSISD
# [11] = Luminescence Cell-Based Dose Confirmation HTS to Identify Activators of 5'UTR Stem-Loop Driven Alpha-Synuclein mRNA Translation in H4 Neuroglioblastoma Cells. [Related pubchem assays: 1829 (Project Summary), 1814 (Primary HTS)]; format: functional
# [12] = target: T6, Sentrin-specific protease 7 (Homo sapiens, UniProt Q9BQF6); format: functional;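 also: Luminescence-based dose-response confirmation of ultra-high-throughput screening hits, measuring inhibition of SENP7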
# T6 sequence (Q9BQF6 whole entry): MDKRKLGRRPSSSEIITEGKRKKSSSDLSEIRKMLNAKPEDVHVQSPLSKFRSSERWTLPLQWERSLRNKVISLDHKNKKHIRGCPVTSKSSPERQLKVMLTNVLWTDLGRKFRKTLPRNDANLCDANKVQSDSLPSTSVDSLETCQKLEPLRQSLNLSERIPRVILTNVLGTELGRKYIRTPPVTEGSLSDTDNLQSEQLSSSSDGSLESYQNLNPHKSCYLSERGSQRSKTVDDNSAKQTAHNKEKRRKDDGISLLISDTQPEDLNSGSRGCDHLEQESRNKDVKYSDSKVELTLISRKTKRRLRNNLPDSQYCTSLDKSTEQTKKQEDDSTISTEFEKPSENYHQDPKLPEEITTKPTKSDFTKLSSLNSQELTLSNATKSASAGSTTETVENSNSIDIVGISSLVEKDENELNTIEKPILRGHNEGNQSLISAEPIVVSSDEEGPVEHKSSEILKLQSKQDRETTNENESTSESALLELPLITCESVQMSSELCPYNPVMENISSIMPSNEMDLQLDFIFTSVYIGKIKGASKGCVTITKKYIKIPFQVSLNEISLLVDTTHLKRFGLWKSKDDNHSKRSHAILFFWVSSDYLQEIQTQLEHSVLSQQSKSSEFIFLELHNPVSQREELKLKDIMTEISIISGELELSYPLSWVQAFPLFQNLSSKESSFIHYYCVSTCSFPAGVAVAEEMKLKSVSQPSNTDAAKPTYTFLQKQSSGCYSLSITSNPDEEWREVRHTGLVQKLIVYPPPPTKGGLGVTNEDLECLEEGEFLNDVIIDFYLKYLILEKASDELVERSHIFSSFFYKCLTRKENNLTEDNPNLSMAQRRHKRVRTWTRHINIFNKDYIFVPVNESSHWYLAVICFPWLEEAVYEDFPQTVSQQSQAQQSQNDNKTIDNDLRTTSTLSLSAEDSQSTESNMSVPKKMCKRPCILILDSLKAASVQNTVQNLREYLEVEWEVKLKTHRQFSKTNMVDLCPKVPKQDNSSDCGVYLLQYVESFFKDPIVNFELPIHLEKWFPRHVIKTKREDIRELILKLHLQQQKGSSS
# [13] = Luminescence Cell-Based Dose Response HTS to Identify Activators of Luciferase Translation or Activity in H4 […] Cells. [Related pubchem assays: 1829 (Project Summary), 1814 (Primary HTS)]; format: functional
# [14] = target: Nonstructural protein 1 (Influenza A virus, UniProt Q194T2); format: functional, Influenza A virus (A/California/07/2009(H1N1))
# [15] = NIH3T3 cell viability loss – ATP luminescence, mouse fibroblasts, counter-screen, dose response (AID 2010); format: functional, cell-based;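 also: cells exposed to compound for about 90 hours before reading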
# [16] = cells; remark: listed apart in the source
# [17] = Trypanosoma cruzi growth suppression in host cells – NIH3T3 host cells, beta-gal luminescence, confirmation (AID 2044); format: functional, cell-based;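 also: intracellular parasites grown in NIH/3T3 mouse fibroblasts as host cells; luminescent beta-galactosidase reporter signal from transgenic T. cruzi replicating inside host cells; inhibitors lower the luminescence signal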
# [18] = target: Kallikrein-7 (Homo sapiens, UniProt P49862); test: Fluorescence Intensity-based biochemical primary high throughput dose response assay to identify activators of kallikrein-7 (K7) zymogen.
# [19] = Dd2 parasite growth inhibition in erythrocytes – SYBR Green, dry powder samples, set 9, dose response (AID 1159568); format: functional, cell-based
# Sequence of Kallikrein-7 (P49862 whole entry): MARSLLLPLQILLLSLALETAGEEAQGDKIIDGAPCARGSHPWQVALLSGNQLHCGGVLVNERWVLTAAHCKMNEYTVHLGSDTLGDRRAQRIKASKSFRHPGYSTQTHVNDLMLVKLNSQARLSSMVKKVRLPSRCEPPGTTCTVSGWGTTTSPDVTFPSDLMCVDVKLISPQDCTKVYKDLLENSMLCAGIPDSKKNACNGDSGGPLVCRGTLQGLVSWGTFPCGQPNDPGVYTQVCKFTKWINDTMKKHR
# Sequence of Nonstructural protein 1 (Q194T2 whole entry): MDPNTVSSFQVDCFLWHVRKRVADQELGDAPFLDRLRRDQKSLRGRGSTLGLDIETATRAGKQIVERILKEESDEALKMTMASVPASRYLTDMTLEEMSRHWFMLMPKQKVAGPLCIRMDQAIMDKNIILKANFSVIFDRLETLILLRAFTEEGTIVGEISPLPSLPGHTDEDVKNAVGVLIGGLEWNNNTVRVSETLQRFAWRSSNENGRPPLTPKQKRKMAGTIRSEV
structure (smiles),measurement,setting,value
COc1cccc(C(=O)O/N=C(\N)c2ccc([N+](=O)[O-])cc2)c1,EC50,[1],3.57 µM (active)
Clc1ccc(CNc2ccc(CNc3nc[nH]n3)cc2)c(Cl)c1,CC50,[2],> 40 µM (active)
c1ccc(N=Nc2ccc3cccccc2-3)cc1,EC50,[3],> 120 µM (not active)
same,IC50,[4],22.3 µM (active)
same,EC50,[5],6.29 µM (active)
same,EC50,[6],> 67.5 µM (inactive)
same,EC50,[7],> 350 µM (not active)
same,IC50,[8],24.5 µM (active)
same,EC50,[9],> 67.5 µM (inactive)
same,IC50,[10],13.9 µM (active)
same,EC50,[11],0.771 µM (active)
same,IC50,[12],4.59 µM (active)
same,EC50,[13],1.1 µM (active)
same,IC50,[14],10.8 µM (active)
COc1ccc(C)cc1N=C(N)Nc1nc(C)cc(C)n1,EC50,[1],3.95 µM (active)
O=C(CCC1CCCN(Cc2ccc3c(c2)CCO3)C1)NCc1ccc(F)c(F)c1 (centres undefined),EC50,[15],> 60 µM (not active)
same,EC50,[16],0.011 µM (active)
same,EC50,[17],< 0.1 µM (active)
Cc1occc1C(=O)NC1CCCN(Cc2ccc(CC(C)C)cc2)C1 (centres undefined),EC50,[15],> 60 µM (not active)
same,EC50,[16],0.073 µM (active)
same,EC50,[17],< 0.1 µM (active)
O=C(CCc1c[nH]c2ccccc12)N1CCN(c2ccc(O)cc2)CC1,CC50,[2],> 40 µM (active)
CCOC(=O)c1c(C)nn(Cc2cccc(Cl)c2)c1N,CC50,[2],> 40 µM (active)
COc1ccc(NC(=O)c2ccc(NC(=O)CSc3nc(N)cc(O)n3)cc2)cc1,EC50,[18],22.4 µM (inactive)
COC(=O)C1=NN(c2ccccc2)C2C(=O)N(c3ccccc3OC)C(=O)C12 (centres undefined),EC50,[18],> 69.5 µM (inactive)
CCCc1cc(NCCOCCO)n2c(nc3ccccc32)c1C#N,EC50,[18],> 2.57 µM (active)
C[C@@H]1CN([C@H](C)CO)C(=O)c2ccccc2-c2ccccc2CO[C@H]1CN(C)C(=O)[C@H](Cc1ccccc1)N(C)C,AC50,[19],11.9 µM (active)
CCCC#Cc1ccc2c(c1)O[C@H](CN(C)Cc1ccccn1)[C@H](C)CN([C@@H](C)CO)S2(=O)=O,AC50,[19],3.94 µM (active)
CC(=O)Nc1cc(-c2ccc(Cl)cc2)n[nH]1,EC50,[1],1.8 µM (active)
